Results: US20240285571A1, “METHODS OF TREATING BONE INFECTIONS” (MICROBION CORPORATION, priority 2020, published 2024)
Converted amounts (≈) assume the structure as drawn. Where two headings read alike, the source gives them in different places.

Key:
[1] = test system: Corynebacterium resistens; test: MIC of baseline clinical isolates (Example 8); format: cell-based; details: Corynebacterium resistens baseline isolates (N′ = 1), central laboratory, mITT
In short: (§1)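 Baseline isolates came from Day 1 and later surgical samples at the index site: infected bone or tissue next to implants, deep-infection swabs, and superficial wound/sinus tract sites. A central laboratory isolated and identified aerobes and anaerobes, and MICs of MBN-101 (BisEDT) were determined per CLSI.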

Streptococcus oralis = test: MIC of baseline clinical isolates (Example 8); format: cell-based; details: Streptococcus oralis baseline isolates (N′ = 1), central laboratory, mITT
In short: as §1

[2] = test system: non-speciated Corynebacterium; test: MIC of baseline clinical isolates (Example 8); format: cell-based; details: Corynebacterium non-speciated baseline isolates (N′ = 2), central laboratory, mITT
In short: as §1

Corynebacterium jeikeium = test: MIC of baseline clinical isolates (Example 8); format: cell-based; details: Corynebacterium jeikeium baseline isolates (N′ = 2), central laboratory, mITT
In short: as §1

[3] = test system: Corynebacterium amycolatum; test: MIC of baseline clinical isolates (Example 8); format: cell-based; details: Corynebacterium amycolatum baseline isolates (N′ = 1), central laboratory, mITT
In short: as §1

Dermabacter hominis = test: MIC of baseline clinical isolates (Example 8); format: cell-based; details: Dermabacter hominis baseline isolates (N′ = 1), central laboratory, mITT
In short: as §1

Anaerococcus murdochii = test: MIC of baseline clinical isolates (Example 8); format: cell-based; details: Anaerococcus murdochii baseline isolates (N′ = 1), central laboratory, mITT
In short: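 Sampling Day 1 plus any subsequent index-site surgery; sources: infected bone/peri-implant tissue, deep swabs, superficial tissue/wound closure/sinus tract. Parallel sets to local site lab for treatment guidance.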

P. aeruginosa [4] = details: P. aeruginosa MMX 103 (ATCC 27853); cited from earlier work
E. coli = E. coli MMX 102 (ATCC 25922); cited from earlier work
N. gonorrhoeae = test: microbe, parasite or virus in culture; details: Neisseria gonorrhoeae
E. faecalis = test: Broth microdilution MIC (Example 5); format: cell-based, Enterococcus faecalis; details: Enterococcus faecalis, VRE
Experimental: (§2) Test and Comparator Agents: The test agents were stored at room temperature until assayed. […] The stock solutions were allowed to stand for at least 1 hr prior to use to auto-sterilize.
(§3) TestMedia: Test media were prepared and stored in accordance with guidelines from CLSI (4, 6, 7).
(§4) Broth Microdilution MC Testing (Aerobic Bacteria and Yeast): The broth microdilution assay method employed for the susceptibility testing of aerobic bacteria (excluding N. gonorrhoeae which was evaluated by agar dilution) and yeast essentially followed the procedures described by CLSI (3, 4, 7, 8) and employed automated liquid handlers to conduct serial dilutions and liquid transfers. […] These would become the ‘mother plates’ from which ‘daughter’ or test plates would be prepared. The drugs (300 μL at 40× the desired top concentration in the test plates) were dispensed into the appropriate well in Column 1 of the mother plates. The Biomek 2000 was used to make serial two-fold dilutions through Column 11 in the “mother plate”. The wells of Column 12 contained no drug and ultimately served as the organism growth control wells.
(§5) The daughter plates were prepared using the Biomek FX which transferred 5 μL of drug solution from each well of a mother plate to the corresponding well of the correct daughter plate in a single step.
(§6) A standardized inoculum of each organism was prepared per CLSI methods (3, 7). Isolated colonies of each test isolate were picked from the primary plate and a suspension was prepared to equal a 0.5 McFarland turbidity standard. Standardized suspensions were then diluted […] (1:100 for yeast, 1:20 for bacteria). After dilution, the inoculum suspensions were then transferred to compartments of sterile reservoirs divided by length (Beckman Coulter), and the Biomek 2000 was used to inoculate all plates. Daughter plates were placed on the Biomek 2000 in reverse orientation so that plates were inoculated from low to high drug concentration.
(§7) The Biomek 2000 delivered 10 μL of standardized inoculum into each well of the appropriate daughter plate for an additional 1:20 dilution.
(§8) Plates were stacked 4 high, covered with a lid on the top plate, placed into plastic bags, and incubated at 35° C. for approximately 24-48 hr for all yeast isolates and 16-24 hr for aerobic bacteria. Plates were viewed from the bottom using a plate viewer. […] MIC endpoints for the test agents and control compounds were read per CLSI criteria (3, 7).

P. aeruginosa [5] = test: Broth microdilution MIC (Example 5); format: cell-based, Pseudomonas aeruginosa; details: Pseudomonas aeruginosa
Experimental: as §2, §3, §4, §5, §6, §7, §8

A. baumannii = test: Broth microdilution MIC (Example 5); format: cell-based, Acinetobacter baumannii; details: Acinetobacter baumannii
Experimental: as §2, §3, §4, §5, §6, §7, §8

M. abscessus (MABSC) = test: MIC against CF isolates (Example 7, Table 18); format: cell-based, Mycobacterium abscessus complex; details: Mycobacteroides abscessus
S. aureus ATCC 29213 = details: per CLSI M100-S24 or provided by Microbion; cited from earlier work
[6] = test system: Pseudomonas aeruginosa biofilms (MR14, AG14); test: Activity against biofilms (Example 7); format: cell-based; details: MR14, MDR CF-isolate of P. aeruginosa; at 25 ng/mL
[7] = ATCC49226, N. gonorrhoeae MMX 683 (ATCC 49226), QC
[8] = N. gonorrhoeae MMX 6757, CTX NS
[9] = read-out: MIC values across isolates, N. gonorrhoeae isolates (Table 7)
[10] = ATCC27853, P. aeruginosa MMX 103 (ATCC 27853), QC, read-out: MIC
[11] = A. baumannii MMX 3373, Sensitive, read-out: MIC

For `CCC[C@@H]1C[C@@H](C(=O)N[C@@H]([C@H]2O[C@H](SC)[C@H](O)[C@@H](O)[C@H]2O)[C@H](C)Cl)N(C)C1` [CLI], which “Mean MIC” value [1] is on record?
The value was 0.50 µg/mL.

And the “n (% resistant)” value [1]?
Its value is 0 (0.0) n (%).

What about the “Mean MIC” value (Streptococcus oralis) of the same compound?
The value was 0.03 µg/mL.

What about the “n (% resistant)” value (Streptococcus oralis) of the same compound?
The value was 0 (0.0) n (%).

And the “Mean MIC” value [2]?
Its value is 1.06 µg/mL.

And the “n (% resistant)” value [2]?
Its value is 1 (50.0) n (%).

What about the “Mean MIC” value (Corynebacterium jeikeium) of the same compound?
Its value is 2.00 µg/mL.

And the “n (% resistant)” value (Corynebacterium jeikeium)?
The value was 2 (100.0) n (%).

And the “Mean MIC” value [3]?
The value was 2.00 µg/mL.

What about the “n (% resistant)” value [3] of the same compound?
Its value is 1 (100.0) n (%).

What about the “Mean MIC” value (Dermabacter hominis) of the same compound?
The value was 0.50 µg/mL.

And the “n (% resistant)” value (Dermabacter hominis)?
The value was 0 (0.0) n (%).

What about the “Mean MIC” value (Anaerococcus murdochii) of the same compound?
The value was 8.00 µg/mL.

And the “n (% resistant)” value (Anaerococcus murdochii)?
Its value is 1 (100.0) n (%).

For `C[C@@H](O)[C@H]1C(=O)N2C(C(=O)O)=C(S[C@@H]3CN[C@H](C(=O)N(C)C)C3)[C@H](C)[C@H]12` [Meropenem], which “CLSI QC range of MIC” value (P. aeruginosa [4]) is on record?
The value was “(0.25-1) μg/mL”.

What about the MIC (Anaerococcus murdochii) of the same compound?
Its MIC is 0.06 µg/mL.

What about the “n (% resistant)” value (Anaerococcus murdochii) of the same compound?
Its value is 0 (0.0) n (%).

What about the “CLSI QC range of MIC” value (E. coli) of the same compound?
Its value is “(0.008-0.06) μg/mL”.

Which MIC (N. gonorrhoeae; [7]) does the source give for `OCC(S)CS.[Bi]` (centres unmarked) [MB-2B, bismuth-2,3-dimercaptopropanol] here?
Its MIC is 0.12 µg/mL.

What about the MIC (N. gonorrhoeae; [8]) of the same compound?
The MIC was 0.5 µg/mL.

What about the MIC (N. gonorrhoeae; N. gonorrhoeae MMX 6791, CIPR) of the same compound?
Its MIC is 0.12 µg/mL.

And the MIC (N. gonorrhoeae; N. gonorrhoeae MMX 6792, CIPR)?
The MIC was 0.12 µg/mL.

What about the MIC (N. gonorrhoeae; N. gonorrhoeae MMX 6793, CIPR) of the same compound?
The MIC was 0.5 µg/mL.

And the MIC (N. gonorrhoeae; [9])?
Its MIC is 0.12 to 0.5 µg/mL.

And the MIC (E. faecalis; E. faecalis MMX 8960)?
Its MIC is 2 µg/mL.

What about the MIC (E. faecalis; E. faecalis MMX 8961) of the same compound?
Its MIC is 2 µg/mL.

What about the MIC (E. faecalis; E. faecalis MMX 8962) of the same compound?
Its MIC is 2 µg/mL.

What about the MIC (P. aeruginosa [5]; [10]) of the same compound?
Its MIC is 8 µg/mL.

And the MIC (P. aeruginosa [5]; P. aeruginosa MMX 1381, MDR)?
Its MIC is 2 µg/mL.

What about the MIC (P. aeruginosa [5]; P. aeruginosa MMX 2562, MDR) of the same compound?
The MIC was 4 µg/mL.

What about the MIC (P. aeruginosa [5]; P. aeruginosa MMX 3991, MDR) of the same compound?
Its MIC is 8 µg/mL.

And the MIC (P. aeruginosa [5]; P. aeruginosa MMX 4654, IMP-7)?
The MIC was 8 µg/mL.

What about the MIC (P. aeruginosa [5]; P. aeruginosa MMX 4697, VIM-2) of the same compound?
The MIC was 16 µg/mL.

And the MIC (A. baumannii; A. baumannii MMX 2592, MDR)?
Its MIC is 16 µg/mL.

And the MIC (A. baumannii; A. baumannii MMX 2593, MDR)?
The MIC was 16 µg/mL.

What about the MIC (A. baumannii; A. baumannii MMX 3372, MDR) of the same compound?
Its MIC is 16 µg/mL.

What about the MIC (A. baumannii; [11]) of the same compound?
The MIC was 16 µg/mL.

And the MIC (A. baumannii; NCTC13304, A. baumannii MMX 4651 (NCTC 13304), MDR, OXA-27)?
The MIC was 16 µg/mL.

Which “CLSI QC range of MIC” value (P. aeruginosa [4]) does the source give for `CC(C)(O/N=C(\C(=O)N[C@@H]1C(=O)N2C(C(=O)[O-])=C(C[n+]3ccccc3)CS[C@H]12)c1csc(N)n1)C(=O)O` [Ceftazidime] here?
Its value is “(1-4) μg/mL”.

What about the “CLSI QC range of MIC” value (E. coli) of the same compound?
Its value is “(0.06-0.5) μg/mL”.

For `NCC[C@H](O)C(=O)N[C@@H]1C[C@H](N)[C@@H](O[C@H]2O[C@H](CN)[C@@H](O)[C@H](O)[C@H]2O)[C@H](O)[C@H]1O[C@H]1O[C@H](CO)[C@@H](O)[C@H](N)[C@H]1O` [Amikacin], which MIC (M. abscessus (MABSC); strain AMT0068-40, M abscessus/massiliense complex) is on record?
The MIC was 32 µg/mL (≈ 54.6 µM).

What about the MIC (M. abscessus (MABSC); strain AMT0119-7, M abscessus/massiliense complex) of the same compound?
Its MIC is 32 µg/mL (≈ 54.6 µM).

What about the “MIC, acceptable range” value (S. aureus ATCC 29213) of the same compound?
The value was 1 to 4 µg/mL.

What about the “MIC, expected results” value (S. aureus ATCC 29213) of the same compound?
Its value is 2 µg/mL (≈ 3.42 µM).

For `CC(S)C(C)S.[Bi]` (centres unmarked) [MB-6, bismuth-2,3-butanedithiol], which “Reduction in biofilm cell viability” value [6] is on record?
The value was 2 logs.

What about the MIC (N. gonorrhoeae; [7]) of the same compound?
Its MIC is 0.06 µg/mL.

What about the MIC (N. gonorrhoeae; [8]) of the same compound?
The MIC was 0.06 µg/mL.

And the MIC (N. gonorrhoeae; N. gonorrhoeae MMX 6791, CIPR)?
The MIC was 0.12 µg/mL.

And the MIC (N. gonorrhoeae; N. gonorrhoeae MMX 6792, CIPR)?
The MIC was 0.12 µg/mL.

What about the MIC (N. gonorrhoeae; N. gonorrhoeae MMX 6793, CIPR) of the same compound?
The MIC was 0.25 µg/mL.

What about the MIC (N. gonorrhoeae; [9]) of the same compound?
Its MIC is 0.06 to 0.25 µg/mL.

And the MIC (E. faecalis; E. faecalis MMX 8960)?
The MIC was 0.5 µg/mL.

And the MIC (E. faecalis; E. faecalis MMX 8961)?
The MIC was 0.25 µg/mL.

And the MIC (E. faecalis; E. faecalis MMX 8962)?
The MIC was 0.25 µg/mL.

And the MIC (M. abscessus (MABSC); MABSC strain AMT0130-8)?
The MIC was 0.0625 µg/mL.

What about the “MIC, acceptable range” value (S. aureus ATCC 29213) of the same compound?
The value was 0.12 to 0.5 µg/mL.

What about the “MIC, expected results” value (S. aureus ATCC 29213) of the same compound?
Its value is 0.25 µg/mL.

And the MIC (P. aeruginosa [5]; [10])?
The MIC was 1 µg/mL.

What about the MIC (A. baumannii; [11]) of the same compound?
Its MIC is 0.5 µg/mL.

For `C[C@H]1COc2c(N3CCN(C)CC3)c(F)cc3c(=O)c(C(=O)O)cn1c23` [Levofloxacin], which MIC [1] is on record?
The MIC was 0.12 µg/mL.

What about the “n (% resistant)” value [1] of the same compound?
The value was 0 (0.0) n (%).

And the MIC (Streptococcus oralis)?
Its MIC is 2 µg/mL.

What about the “n (% resistant)” value (Streptococcus oralis) of the same compound?
Its value is 0 (0.0) n (%).

What about the MIC [2] of the same compound?
Its MIC is 0.18 µg/mL.

What about the “n (% resistant)” value [2] of the same compound?
Its value is 0 (0.0) n (%).

And the MIC (Corynebacterium jeikeium)?
Its MIC is 0.18 µg/mL.

What about the “n (% resistant)” value (Corynebacterium jeikeium) of the same compound?
Its value is 0 (0.0) n (%).

And the MIC [3]?
Its MIC is 8 µg/mL.

What about the “n (% resistant)” value [3] of the same compound?
Its value is 0 (0.0) n (%).

And the MIC (Dermabacter hominis)?
Its MIC is 1 µg/mL.

What about the “n (% resistant)” value (Dermabacter hominis) of the same compound?
Its value is 0 (0.0) n (%).
